Earlier results on one compound are cited in patent publication US20070160667A1, “Controlled release formulation of divalproex sodium” (priority 2006, published 2007).

Where two headings read alike, the source gives them in different places.

Take `CCCC(CCC)C(=O)O` [valproic acid, 2-Propylpentanoic acid]: the elimination half-life result by setting is: (in adults) “six and seventeen”; (in children) “four and fourteen”.
